The supplement of paper PMC10307832

Tests used:
Assay in all cases: relative viability (nuclei count vs DMSO), 5 days (fraction); higher = more cells survive
[1] = tested on: LCLC-97TM1
Procedure, shortened: (§1)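 Lung cancer cell lines were pin-tool dosed in 1536-well plates on the day after seeding, with either a lone drug or a fixed anchor-drug dose plus five library-drug doses (not always all listed) in √10 steps. Nuclei were counted on 4× images after 5 days. Relative viability is the ratio of treated-well to vehicle-well nuclei counts, with each value a median of duplicate plates.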

[2] = tested on: NCI-H2347
Procedure, shortened: as §1

[3] = tested on: NCI-H2405
Procedure, shortened: as §1

[4] = tested on: HCC-827
Procedure, shortened: as §1

[5] = tested on: NCI-H661
Procedure, shortened: as §1

[6] = tested on: NCI-H650
Procedure, shortened: as §1

[7] = tested on: RERF-LC-KJ
Procedure, shortened: as §1

[8] = tested on: NCI-H2126
Procedure, shortened: as §1

[9] = tested on: NCI-H522
Procedure, shortened: as §1

[10] = tested on: 201T
Procedure, shortened: as §1

[11] = tested on: NCI-H23
Procedure, shortened: as §1

[12] = tested on: EPLC-272H
Procedure, shortened: as §1

[13] = tested on: PC-14
Procedure, shortened: as §1

[14] = tested on: HCC-78
Procedure, shortened: as §1

[15] = tested on: NCI-H1666
Procedure, shortened: as §1

[16] = tested on: H3255
Procedure, shortened: as §1

[17] = tested on: NCI-H2087
Procedure, shortened: as §1

[18] = tested on: COR-L 105
Procedure, shortened: as §1

[19] = tested on: NCI-H322M
Procedure, shortened: as §1

[20] = tested on: LC-2-ad
Procedure, shortened: as §1

[21] = tested on: NCI-H647
Procedure, shortened: as §1

[22] = tested on: ChaGo-K-1
Procedure, shortened: as §1

[23] = tested on: NCI-H1915
Procedure, shortened: as §1

[24] = tested on: NCI-H520
Procedure, shortened: as §1

SMILES: C[C@@H]1CN(CC(=O)Nc2ccc3c(c2)Cc2cccc(-c4cc(=O)cc(N5CCOCC5)o4)c2S3)C[C@H](C)O1 + O=C(c1cc(Cc2n[nH]c(=O)c3ccccc23)ccc1F)N1CCN(C(=O)C2CC2)CC1 [Olaparib] (partner 8 µM)
- relative viability ([1]; first compound 0.1265 µM): 0.381
- relative viability ([1]; first compound 0.4 µM): 0.462
- relative viability ([1]; first compound 4 µM): 0.37
- relative viability ([2]; first compound 0.04 µM): 0.636
- relative viability ([2]; first compound 0.1265 µM): 0.545
- relative viability ([2]; first compound 0.4 µM): 0.57
- relative viability ([2]; first compound 4 µM): 0.448
- relative viability ([3]; first compound 0.04 µM): 0.938
- relative viability ([3]; first compound 0.1265 µM): 0.93
- relative viability ([3]; first compound 0.4 µM): 0.837
- relative viability ([3]; first compound 4 µM): 0.578
- relative viability ([4]; first compound 0.04 µM): 0.674
- relative viability ([4]; first compound 0.1265 µM): 0.653
- relative viability ([4]; first compound 0.4 µM): 0.678
- relative viability ([4]; first compound 4 µM): 0.438
- relative viability ([5]; first compound 0.04 µM): 0.814
- relative viability ([5]; first compound 0.1265 µM): 0.77
- relative viability ([5]; first compound 0.4 µM): 0.784
- relative viability ([5]; first compound 4 µM): 0.622
- relative viability ([6]; first compound 0.04 µM): 0.436
- relative viability ([6]; first compound 0.1265 µM): 0.48
- relative viability ([6]; first compound 0.4 µM): 0.438
- relative viability ([6]; first compound 4 µM): 0.258
- relative viability ([7]; first compound 0.04 µM): 0.917
- relative viability ([7]; first compound 0.1265 µM): 0.984
- relative viability ([7]; first compound 0.4 µM): 1.01
- relative viability ([7]; first compound 4 µM): 0.323
- relative viability ([8]; first compound 0.04 µM): 0.928
- relative viability ([8]; first compound 0.1265 µM): 0.873
- relative viability ([8]; first compound 0.4 µM): 0.95
- relative viability ([8]; first compound 4 µM): 0.928
- relative viability ([9]; first compound 0.04 µM): 0.612
- relative viability ([9]; first compound 0.1265 µM): 0.667
- relative viability ([9]; first compound 0.4 µM): 0.576
- relative viability ([9]; first compound 4 µM): 0.614
- relative viability ([10]; first compound 0.04 µM): 0.839
- relative viability ([10]; first compound 0.1265 µM): 0.816
- relative viability ([10]; first compound 0.4 µM): 0.793
- relative viability ([10]; first compound 4 µM): 0.783
- relative viability ([11]; first compound 0.04 µM): 0.352
- relative viability ([11]; first compound 0.1265 µM): 0.317
- relative viability ([11]; first compound 0.4 µM): 0.264
- relative viability ([11]; first compound 4 µM): 0.227
- relative viability ([12]; first compound 0.04 µM): 0.956
- relative viability ([12]; first compound 0.1265 µM): 0.81
- relative viability ([12]; first compound 0.4 µM): 0.647
- relative viability ([12]; first compound 4 µM): 0.317
- relative viability ([13]; first compound 0.04 µM): 0.249
- relative viability ([13]; first compound 0.1265 µM): 0.169
- relative viability ([13]; first compound 0.4 µM): 0.205
- relative viability ([13]; first compound 4 µM): 0.09
- relative viability ([14]; first compound 0.04 µM): 0.735
- relative viability ([14]; first compound 0.1265 µM): 0.807
- relative viability ([14]; first compound 0.4 µM): 0.925
- relative viability ([14]; first compound 4 µM): 0.595
- relative viability ([15]; first compound 0.04 µM): 0.713
- relative viability ([15]; first compound 0.1265 µM): 0.767
- relative viability ([15]; first compound 0.4 µM): 0.659
- relative viability ([15]; first compound 4 µM): 0.468
- relative viability ([16]; first compound 0.04 µM): 0.554
- relative viability ([16]; first compound 0.1265 µM): 0.532
- relative viability ([16]; first compound 0.4 µM): 0.522
- relative viability ([16]; first compound 4 µM): 0.452
- relative viability ([17]; first compound 0.04 µM): 0.649
- relative viability ([17]; first compound 0.1265 µM): 0.546
- relative viability ([17]; first compound 0.4 µM): 0.602
- relative viability ([17]; first compound 4 µM): 0.214
- relative viability ([18]; first compound 0.04 µM): 0.772
- relative viability ([18]; first compound 0.1265 µM): 0.786
- relative viability ([18]; first compound 0.4 µM): 0.822
- relative viability ([18]; first compound 4 µM): 0.647
- relative viability ([19]; first compound 0.04 µM): 0.632
- relative viability ([19]; first compound 0.1265 µM): 0.794
- relative viability ([19]; first compound 0.4 µM): 0.81
- relative viability ([19]; first compound 4 µM): 0.643
- relative viability ([20]; first compound 0.04 µM): 0.657
- relative viability ([20]; first compound 0.1265 µM): 0.653
- relative viability ([20]; first compound 0.4 µM): 0.689
- relative viability ([20]; first compound 4 µM): 0.433
- relative viability ([21]; first compound 0.04 µM): 0.611
- relative viability ([21]; first compound 0.1265 µM): 0.436
- relative viability ([21]; first compound 0.4 µM): 0.417
- relative viability ([21]; first compound 4 µM): 0.0936
- relative viability ([22]; first compound 0.04 µM): 0.461
- relative viability ([22]; first compound 0.1265 µM): 0.428
- relative viability ([22]; first compound 0.4 µM): 0.404
- relative viability ([22]; first compound 4 µM): 0.389
- relative viability ([23]; first compound 0.04 µM): 0.25
- relative viability ([23]; first compound 0.1265 µM): 0.248
- relative viability ([23]; first compound 0.4 µM): 0.265
- relative viability ([23]; first compound 4 µM): 0.182
- relative viability ([24]; first compound 0.04 µM): 0.43
- relative viability ([24]; first compound 0.1265 µM): 0.308
- relative viability ([24]; first compound 0.4 µM): 0.31
- relative viability ([24]; first compound 4 µM): 0.202
